Assay results taken from patent publication US20200024246A1, “POGOSTONE DERIVATIVES AND METHODS OF USING THE SAME” (Hamyard Associates LLC, priority 2018, published 2020).
In brackets after ≈: the same amount, converted by molar mass. Entries after “also recorded” stand apart in the source; their conditions may differ. Like-named read-outs stand apart in the source and are kept apart here.

Key:
[1] = tested on: adult flies; assay: Contact toxicity on treated filter paper; type: in vivo; conditions: filter paper treated with 1 mL in acetone; 24 hours
Description: Filter papers were treated with 1 mL of the disclosed compounds in acetone at varying concentrations, and the filter papers were placed in a dish. Ten adult flies were added to each dish and a sugar pad was added to each dish to ensure that any mortality could be attributed to the compound instead of starvation. Mortality was assessed at 24 hours.

[2] = tested on: adult female mosquitoes; assay: whole plant or invertebrate; conditions: for LD50: read-out: 24-hour Mortality LD50 (μg/g mosquito)
Description: The first group of DHAA-based derivatives that were tested included Formula A2, Formula B3, Formula C3, and Formula D3. A solution of 0.5% or 1.5% of each of these compounds was applied to the mosquitoes, as described above. […] Acetone was used as a control.

[3] = tested on: 3-4 instar Aedes aegypti larvae; assay: Mosquito larvicide bioassay; type: in vivo; conditions: for LC50: Aedes aegypti; for larvicidal properties compared with natural pogostone or rotenone: words
Description: Mosquito larvicide bioassays were performed by introducing various concentrations of test compounds (pyrone derivatives and rotenone) into acetone at various concentrations. 200 uL of these solutions were added to individual cups containing 10, 3-4 instar Aedes aegypti larvae and 25 mL of DI water. 2 mg of Tetramin™ was provided to each cup as a food source. […] Ataxia was used as the indicator of larval mortality. At least 5 concentrations were used which caused between 10 and 90% mortality. LC50 values were calculated using a PROC PROBIT model in SAS 9.4.

[4] = tested on: adult female Aedes aegypti; assay: Topical combination of Formula 13 with synthetic insecticides (FIGS. 6-9); type: in vivo; conditions: for 24-hr percentage mortality: 0.2 μL acetone, Formula 13 500 μg/mL, dibrom 10 μg/mL, thiamethoxam 100 μg/mL, permethrin 2.5 μg/mL, alone or in combination
Description: A low-dose concentration of Formula 13 (500 μg/mL) was applied in combination with chlorfenapyr (75 μg/mL), dibrom (10 μg/mL), thiamethoxam (100 μg/mL), and permethrin (2.5 μg/mL) to the pronotum of adult female Aedes aegypti in 0.2 μL of acetone. These concentrations were chosen as they produced little-to-no mortality at 24 hours after application. Knockdown (immobilization) was recorded at 1 hour after application and mortality was recorded at 24, 48, and 72 hours after initial application. These applications were run in parallel to a topical application of a combined mixture of 500 μg/mL Formula 13 and 75 μg/mL of chlorfenpayr to the pronotum of adult female mosquitoes. For this experiment, total of 25 mosquitoes were treated within each replicate, with a minimum of 3 replicates utilized for each treatment. Synergism was defined as the higher percentage mortality in the insecticidal combination of both Formula 13 and chlorfenapyr compared to each individual component applied by itself.

[5] = tested on: adult, female mosquitoes; assay: Topical application on adult female mosquitoes (24-h mortality, 1-h knockdown); type: in vivo, mosquito; conditions: for ED50: read-out: KD50 (ug/g mosquito); for LD50: read-out: LD50 (ug/g mosquito); for insecticidal properties compared with natural pogostone, natural pyrethrins or terpenoids: words, refers to Table 1
[6] = tested on: adult house flies; assay: House fly feeding assay (choice assay, FIG. 5); type: in vivo; conditions: 15% w/w in fly food, total mortality at 5 days
Excerpt: Formulas 13, 17, 24, 26, 10, 27, and 29 and control (acetone and boric acid) were incorporated into 2 g of house fly food (1:1 dry milk and sucrose) at rate of 15%. Specifically, approximately 20-30 adult house flies ( ) were introduced into aquaria with a French square filled with de-ionized water. Cotton dental wicks were used to draw water up and present it to flies at the top of the French square. Compounds were introduced at a concentration of (15% w/w food) into 1:1 mixtures of evaporated milk powder and sucrose. MUSCALURE™, a potent house fly attractant/pheromone used in various house fly bait products, was also added to this mixture of bait and food at a concentration of 0.5% w/w food. Two grams of food mixed with compound was provided to house flies in each assay. Another 2 g of just fly food (no compound) was provided at the other end of the assay chamber to serve as untreated source of food. This was done to assess the ability of flies to feed on the treated food source (palatability). If acetone was used as the carrier throughout the experiment, the food was carefully stirred repeatedly to ensure evaporation so that no more acetone was present in the food. Total mortality was assessed at 5 days after introducing house flies into individual mason jars with food treated with different compounds.

[7] = tested on: adult house flies; assay: Topical application of pogostone derivatives with PBO or plant essential oil on house flies; type: in vivo, house fly; conditions: for LD50 / LD50 (μg/g): house flies, topical, derivative alone or in combination with PBO
Description: Combinations of select pogostone derivatives with select concentrations of PBO or plant essential oils was performed. […] Synergists were applied as a subsequent application directly after the application of pogostone derivatives. Concentrations of synergists (plant oils or PBO) were chosen that produced no mortality at 24 hours when applied alone.
To assess the ability of PBO to increase the toxicity of a wide variety of pogostone derivatives, PBO and the pogostone derivatives were applied in combination to the pronotum of house flies.
Finally, the potential of plant essential oils to synergize the effect of Formula 30 was assessed.

[8] = tested on: house flies; assay: Topical application on house flies; conditions: for LD50 (ug/g fly): House Fly Toxicity, topical
[9] = tested on: Pyrethroid-resistant strain of Aedes aegypti (Puerto Rican strain); assay: Toxicity to insecticide-resistant mosquitoes (FIG. 1); conditions: dose response curves FIG. 1
[10] = Mosquito Knockdown Properties (1 hour), topical application
[11] = Mosquito Toxicity (24 hours), topical application to pronotum

C=C(C)C(O)CC(=O)c1c(O)cc(C)oc1=O (stereo not shown) [Formula C19]
percent mortality, 0.10% Concentration [1]: 0%
percent mortality, 0.25% Concentration [1]: 0%
percent mortality, 0.50% Concentration [1]: 0%
pest or weed control at 0.5 % ([2]; Culicidae, topical, 1 h, read-out: Knockdown at 0.5%): 83%
pest or weed control at 1.5 % ([2]; Culicidae, topical, 1 h, read-out: Knockdown at 1.5%): 83%
mortality at 0.5 % ([2]; Culicidae, topical, 24 h, read-out: Mortality at 0.5%): 83%
mortality at 1.5 % ([2]; Culicidae, topical, 24 h, read-out: Mortality at 1.5%): 77%
ranking in knockdown and mortality screenings ([2]; words): appear to be the most potent insecticidal compounds

C=C(C)[C@H]1Cc2c(ccc3c2O[C@@H]2COc4cc(OC)c(OC)cc4[C@@H]2C3=O)O1 [Rotenone, reference compound]
LC50 ([3]; 24 h): 0.35 µg/mL (≈ 0.887 µM)

CC1(C)C(C=C(Cl)Cl)C1C(=O)OCc1cccc(Oc2ccccc2)c1 (racemic) [Permethrin, 3-phenoxybenzyl (1RS)-cis,trans-3-(2,2-dichlorovinyl)-2,2-dimethylcyclopropanecarboxylate]
24-hr percentage mortality [4]: 28%

CCOC(=O)/C(C(C)=O)=C(/O)c1ccccc1 [Formula 28]
LC50 ([3]; 24 h): 9.16 µg/mL
larvicidal properties compared with natural pogostone or rotenone [3]: possessed better larvicidal properties than natural pogostone
ED50 ([5]; topical, 1 h): > 1500 mg/kg
LD50 ([5]; topical, 24 h): > 1500 mg/kg

O=C(CCc1ccccc1)c1c(O)c2ccccc2oc1=O [Formula 24]
ED50 ([5]; topical, 1 h): > 1500 mg/kg
LD50 ([5]; topical, 24 h): > 1500 mg/kg
mortality compared with boric acid [6]: performed similarly to boric acid

CCOCn1c(-c2ccc(Cl)cc2)c(C#N)c(Br)c1C(F)(F)F [chlorfenapyr, 4-bromo-2-(4-chlorophenyl)-1-ethoxymethyl-5-trifluoromethylpyrrol-3-carbonitrile]
percentage mortality at 24 hour ([4]; chlorfenapyr 75 ug/mL, Formula 13 500 ug/mL, alone or combined, words): very low mortality

CC(C)C(=O)c1c(O)c2cc(F)ccc2oc1=O [Formula 30]
toxicity of Formula 30 in combination with cedarwood (Texas type) oil (CWT) ([7]; 1% CWT, dose-response curves FIG. 11): significant increase in toxicity; also recorded: shifting the dose-response curve to the left
toxicity of Formula 30 in combination with PBO ([7]; 1% PBO, dose-response curves FIG. 11): significant increase in toxicity; also recorded: shifting the dose-response curve to the left
LD50 [7]: 645 µg/g
ED50 [5, 10]: > 1500 mg/kg
LD50 [5, 11]: 45.6 mg/kg
insecticidal properties compared with natural pogostone, natural pyrethrins or terpenoids [5]: possessed better insecticidal properties than natural pogostone
LD50 (ug/g fly) [8]: 645 ug/g fly
toxicity to house flies ([8]; words): extremely effective at killing house flies

CN1COCN(Cc2cnc(Cl)s2)C1=N[N+](=O)[O-] [Thiamethoxam, 3-((2-chloro-5-thiazolyl)methyl)-5-methyl-4-nitroiminotetrahydro-1,3,5-oxadiazine]
24-hr percentage mortality [4]: 25.6%

Cc1cc(O)c(C(=O)/C=C/C(C)C)c(=O)o1 [Formula 10]
ED50 [5, 10]: > 1500 mg/kg
LD50 [5, 11]: > 1500 mg/kg
mortality compared with boric acid [6]: performed better than boric acid

O=C(c1c(O)c2ccccc2oc1=O)C(Cl)Cl [Formula 31]
LD50 (μg/g) [7]: >6,000 μg/g
ED50 [5, 10]: > 1500 mg/kg
LD50 [5, 11]: > 1500 mg/kg
LD50 (ug/g fly) [8]: >6,000 ug/g fly

CCCCCCCCCCCC(=O)c1c(O)c2ccccc2oc1=O [Formula 26]
ED50 ([5]; topical, 1 h): > 1500 mg/kg
LD50 ([5]; topical, 24 h): > 1500 mg/kg
mortality compared with boric acid [6]: performed similarly to boric acid

CC(C)C(=O)c1c(O)c2ccccc2oc1=O [Formula 19]
LD50 [7]: 1495 µg/g
ED50 ([5]; topical, 1 h): 384 mg/kg
LD50 ([5]; topical, 24 h): 24.7 mg/kg
insecticidal properties compared with natural pogostone, natural pyrethrins or terpenoids [5]: possessed better insecticidal properties at least as well as natural pyrethrins
1-hour Knockdown EC50 (μg/g mosquito) ([2]; topical): 384.5 μg/g mosquito
LD50 ([2]; topical, 24 h): 25 mg/kg
LD50 (ug/g fly) [8]: 1495 ug/g fly

O=C(c1c(O)c2ccccc2oc1=O)C1CC1 [Formula 29]
LD50 [7]: 1761 µg/g
ED50 [5, 10]: 613 mg/kg
LD50 [5, 11]: 47.7 mg/kg
insecticidal properties compared with natural pogostone, natural pyrethrins or terpenoids [5]: possessed better insecticidal properties than natural pogostone
LD50 (ug/g fly) [8]: 1761 ug/g fly
mortality compared with boric acid [6]: performed better than boric acid

CCCC(=O)c1c(O)c2ccccc2oc1=O [Formula 14]
LC50 ([3]; larval mortality at 24 hours, in 25 mL DI water, read-out: LC50): 0.9 µg/mL
larvicidal properties compared with natural pogostone or rotenone [3]: possessed better larvicidal properties than natural pogostone; also recorded: possessed better larvicidal properties than rotenone; also recorded: performed as well as the rotenone
LD50 (μg/g) [7]: >6,000 μg/g
insecticidal capacity compared with natural pyrethrins [9]: outperformed natural pyrethrins
ED50 ([5]; topical, 1 h): > 1500 mg/kg
LD50 ([5]; topical, 24 h): 139 mg/kg
insecticidal properties compared with natural pogostone, natural pyrethrins or terpenoids [5]: possessed better insecticidal properties than natural pogostone
1-hour Knockdown EC50 (μg/g mosquito) ([2]; topical): >1500 μg/g mosquito
LD50 ([2]; topical, 24 h): 139 mg/kg
LD50 (ug/g fly) [8]: >6,000 ug/g fly

COP(=O)(OC)OC(Br)C(Cl)(Cl)Br (stereo not shown) [Dibrom]
24-hr percentage mortality [4]: 11%
